# Values of other authors as cited in paper PMC3401522 (ACS Chemical Biology, 2011).
# System: JIP-JNK interaction sites
structure (smiles),measurement,value
O=c1[nH]nc(Sc2ncc([N+](=O)[O-])s2)n1-c1ccc2c(c1)OCCO2 [BI-78D3],IC50,500 nM
